Test results reported in US8426447B2, “Spiro-tricyclic ring compounds as beta-secretase modulators and methods of use” (Amgen Inc., priority 2008, dated 2013).
pIC50: −log10 of the molar value.

Columns and labels:
BACE1 [1] = target: T1, BACE1 (Homo sapiens, UniProt P56817); assay: In Vitro BACE Cell-based Assay (HEK cell assay): Aβ40 in conditioned medium of cells stably expressing Amyloid Precursor Protein, sandwich ELISA; conditions: read-out: HEK cell assay; for IC50: Table III, IC50's in uM ranges
T1 sequence (P56817 46-501, species assumed): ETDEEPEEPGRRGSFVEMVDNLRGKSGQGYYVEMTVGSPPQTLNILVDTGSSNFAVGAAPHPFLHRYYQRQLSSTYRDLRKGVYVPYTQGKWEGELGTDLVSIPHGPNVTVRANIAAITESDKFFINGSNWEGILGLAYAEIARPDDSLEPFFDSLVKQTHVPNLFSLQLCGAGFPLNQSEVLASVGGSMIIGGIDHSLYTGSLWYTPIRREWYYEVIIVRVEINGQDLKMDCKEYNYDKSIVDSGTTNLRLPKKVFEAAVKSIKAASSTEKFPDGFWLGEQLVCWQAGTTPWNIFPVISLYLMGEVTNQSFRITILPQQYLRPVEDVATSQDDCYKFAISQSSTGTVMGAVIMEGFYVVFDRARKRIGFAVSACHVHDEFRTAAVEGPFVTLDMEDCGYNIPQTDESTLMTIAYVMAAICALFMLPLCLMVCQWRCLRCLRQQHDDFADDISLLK
Method in brief: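 HEK cells stably expressing APP were treated 24 h with compound in 10-point dose response starting at 100 or 10 μM (0.1% DMSO). Secreted Aβ40 quantified by sandwich ELISA (pAb40 capture, biotinylated 6E10 detection, europium time-resolved fluorescence), with IC50 derived from percent inhibition versus concentration.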

BACE1 [2] = target: T1, BACE1; assay: In Vitro Enzymatic BACE FRET (Fluorescence Resonance Energy Transfer) Assay; type: biochemical; conditions: read-out: BACE1 FRET assay; for IC50: Table III, IC50's in uM ranges
Method in brief: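 Fluorescence read-out after Tris addition raises pH to neutrality and ends the reaction. Before that, a peptide substrate carrying fluorophore and quencher across the BACE cleavage site (50 nM) is incubated with enzyme for one hour at pH 4.2 in acetate containing 10% DMSO and sub-micellar genapol.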

| Compound | pIC50 (BACE1 [2]) | pIC50 (BACE1 [1]; Table IV, class symbols) | pIC50 (BACE1 [2]; Table IV, class symbols) | other results |
| --- | --- | --- | --- | --- |
| Cc1nn(C)c(C)c1-c1ccc2c(c1)[C@@]1(COC(N)=N1)c1cc(OCC(C)(C)C)ccc1O2 [compound 213] |  |  |  | IC50 (BACE1 [1]): 1 to 5 µM; IC50 (BACE1 [2]): 0.1 to 1 µM |
| COc1ccc2c(c1)[C@]1(COC(N)=N1)c1cc(NC(=O)C3CCCO3)ccc1O2 (stereo partly shown) [compound 614] |  | 6.00 to 7.00 | 6.00 to 7.00 |  |
| COc1cncc(-c2ccc3c(c2)[C@@]2(COC(N)=N2)c2cc(C#CC(C)(C)C)cnc2O3)c1 [compound 643] |  | > 7.00 | > 7.00 |  |
| CC(C)(C)COc1ccc2c(c1)[C@@]1(COC(N)=N1)c1cc(-c3cccnc3)cnc1O2 [Example 93, (5S)-7-(2,2-dimethylpropoxy)-3-(3-pyridinyl)spiro[chromeno[2,3-b]pyridine-5,4′-[1,3]oxazol]-2′-amine] |  |  |  | pIC50 (BACE1 [1]; Table II, Aβ40, 24 h incubation): 6.00 to 7.00; pIC50 (BACE1 [2]; Table II): 6.00 to 7.00 |
| CCCOc1ccc2c(c1)[C@@]1(COC(N)=N1)c1cc(-c3cncnc3)ccc1O2 [Example 11, (4R)-2′-propoxy-7′-(5-pyrimidinyl)spiro[1,3-oxazole-4,9′-xanthen]-2-amine] |  |  |  | pIC50 (BACE1 [1]; Table 1, Aβ40, 24 h incubation): 5.30 to 6.00; pIC50 (BACE1 [2]; Table 1): 6.00 to 7.00 |
| CC(C)(O)C#Cc1cnc2c(c1)[C@]1(COC(N)=N1)c1cc(-c3ccccc3)ccc1O2 [compound 647] |  | > 7.00 | > 7.00 |  |
| COc1ccc2c(c1)[C@]1(COC(N)=N1)c1cc(OC)cnc1O2 [compound 541] |  | 5.30 to 6.00 | < 5.30 |  |
| NC1=N[C@@]2(CO1)c1ccccc1Oc1ccc(-c3cccnc3)cc12 [compound 640] |  | 5.30 to 6.00 | 5.30 to 6.00 |  |
| NC1=N[C@]2(CO1)c1ccccc1Oc1ccc(C(=O)NC3CCCCC3)cc12 [compound 621] |  | < 5.30 | < 5.30 |  |
| NC1=N[C@@]2(CO1)c1cc(-c3ccccc3)ccc1Oc1ncc(N3C[C@@H]4C[C@H]3CO4)cc12 [compound 454] | > 7.00 |  |  | pIC50 (BACE1 [1]; HEK cells): > 7.00 |
| CC(C)(C)CCc1ccc2c(c1)[C@]1(COC(N)=N1)c1cc(-c3cccnc3)cnc1O2 [182b] |  |  |  | IC50 (BACE1 [1]): 0.1 to 1 µM; IC50 (BACE1 [2]): < 0.1 µM |
| NC1=N[C@]2(CO1)c1cc(Br)ccc1Oc1c(F)cccc12 [compound 559] |  | < 5.30 | < 5.30 |  |
| CC(C)(F)COc1ccc2c(c1)[C@]1(COC(N)=N1)c1cc(-c3cccnc3)cnc1O2 [compound 177] |  |  |  | IC50 (BACE1 [1]): < 0.1 µM; IC50 (BACE1 [2]): < 0.1 µM |

The next lines start with results.

| pIC50 (BACE1 [2]) | pIC50 (BACE1 [1]; Table IV, class symbols) | pIC50 (BACE1 [2]; Table IV, class symbols) | Compound | other results |
| --- | --- | --- | --- | --- |
| > 7.00 |  |  | NC1=N[C@@]2(CO1)c1cc(-c3cccnc3)ccc1Oc1cnc(C3=CCCCO3)cc12 [compound 729] | pIC50 (BACE1 [1]): > 7.00 |
| > 7.00 |  |  | COC(C)(C)COc1ccc2c(c1)[C@@]1(COC(N)=N1)c1cc(-c3cccnc3)cnc1O2 [compound 983] | pIC50 (BACE1 [1]): > 7.00 |
|  | 5.30 to 6.00 | 6.00 to 7.00 | CC(C)(C)C#Cc1ccc2c(c1)[C@]1(COC(N)=N1)c1cc(C3=CCOCC3)ncc1O2 [compound 800] |  |
| > 7.00 |  |  | CC(C)(C)/C=C/c1ccc2c(c1)[C@]1(COC(N)=N1)c1cc(-c3cncnc3)ccc1O2 [compound 963] | pIC50 (BACE1 [1]): > 7.00 |
|  | 5.30 to 6.00 | > 7.00 | CC(C)(C)COc1ccc2c(c1)[C@]1(COC(N)=N1)c1cc(-c3ccc(C#N)nc3)ccc1O2 [compound 882] |  |
| 5.30 to 6.00 |  |  | CC(C)(C)CCOc1nccc2c1[C@@]1(COC(N)=N1)c1cc(-c3cccnc3)ccc1O2 [compound 931] | pIC50 (BACE1 [1]): < 5.30 |
| 6.00 to 7.00 |  |  | N#Cc1ccccc1Oc1ccc2c(c1)[C@]1(COC(N)=N1)c1cc(-c3cncnc3)ccc1O2 [compound 965] | pIC50 (BACE1 [1]): < 5.30 |
|  | < 5.30 | 6.00 to 7.00 | CC(C)(C)COc1ccc2c(c1)[C@]1(COC(N)=N1)c1cc(-c3cccnc3C(F)(F)F)ccc1O2 [compound 911] |  |
| > 7.00 |  |  | NC1=N[C@@]2(CO1)c1cc(-c3cccnc3)ccc1Oc1ccc(-c3cscn3)cc12 [compound 671] | pIC50 (BACE1 [1]): > 7.00 |
|  | 6.00 to 7.00 | > 7.00 | CC(C)C(O)COc1ccc2c(c1)[C@]1(COC(N)=N1)c1cc(-c3cccnc3)ccc1O2 (stereo partly shown) [compound 866] |  |
|  | 5.30 to 6.00 | 6.00 to 7.00 | CC(C)c1nc(-c2ccc3c(c2)[C@@]2(COC(N)=N2)c2cc(OCC(C)(C)C)ccc2O3)cs1 [compound 832] |  |
| 6.00 to 7.00 |  |  | Cc1noc(C)c1-c1ccc2c(c1)[C@@]1(COC(N)=N1)c1cc(OCC(C)(C)C)ccc1O2 [compound 976] | pIC50 (BACE1 [1]): < 5.30 |
|  | > 7.00 | > 7.00 | CC(=O)c1cccc(-c2ccc3c(c2)[C@]2(COC(N)=N2)c2cc(-c4cncnc4)ccc2O3)c1 [compound 889] |  |
